# Experiments:
# [1] = system: human placental aromatase; assay: Aromatase inhibition in vitro (human placental microsomes, 3H2O release from 4-[1β,2β-3H]androstene-3,17-dione); type: biochemical; settings: comparison with e.g. 4-OH-A
# Procedure: (§1) Aromatase inhibition by the compounds of the present invention was determined both in vitro (human placental aromatase), and in vivo (ovarian aromatase activity) in rats.
# Aromatase inhibition in vitro was determined as follows: the enzyme system was isolated from the microsomal fraction of human placental tissue according to standard procedure. The assay of Thompson and Siiteri [E. A. Thompson and P. K. Siiteri, J. Biol. Chem. 249, 5364, 1974] which determines the rate of aromatization as measured by the liberation of ^3 H2 O from 4-[1β,2β-^3 H]androstene-3,17-dione was used. All incubations were carried out in a shaking water bath at 37° C. in air in 10 mM potassium phosphate buffer, pH 7.5, which contained 100 mM KCl, 1 mM EDTA and 1 mM dithiothreitol. The experiments were carried out in 1 ml incubation volume containing 50 nM 4-[^3 H]androstenedione, various concentrations of the inhibitors, 100 μM NADPH and 0.05 mg of microsomal proteins. After 15 minutes of incubation the reaction was stopped by the addition of chloroform (5 ml). After centrifugation at 1500×g for 5 minutes, aliquots (0.5 ml) were removed from the water phase for determination of ^3 H2 O formed. […] Aromatase inhibition in vivo was determined in rats by the following procedure: […]
# rat ovarian aromatase = assay: Inhibition of rat ovarian aromatase in vivo (PMSG-treated adult female rats, oral dosing, ovarian microsomes assayed 24 hours later); settings: for % AROMATASE INHIBITION: rat ovarian microsomes 24 hours after dosing, versus vehicle treated group
# Procedure: as §1
# adult female rats were twice treated subcutaneously with 100 I.U. pregnant mares' serum gonadotropin (PMSG) at 4 days' interval, in order to increase ovarian aromatase activity, according to Brodie procedure [A. M. H. Brodie et al, Steroids 38, 693, 1981]. Three days after the second PMSG treatment, groups of 6 animals each were given orally the vehicle (0.5% methocel) or the inhibitor at the dose reported in the following table. Animals were killed 24 hours later, microsomes were isolated from ovaries and their aromatase activity determined using a method similar to that described above for the evaluation of the in vitro activity. The incubation were carried out for 30 minutes in 1 ml incubation volume containing 0.1 mg of microsomal proteins, 100 nM 4-[^3 H]androstenedione and 100 μM NADPH.
# % inhibition of control aromatase activity was calculated.
# [2] = women, R. C. Coombes et al., Lancet II, 1237, 1984; cited from earlier work
SMILES,in vitro aromatase inhibiting potency compared with reference compounds (in words) [1],% AROMATASE INHIBITION (rat ovarian aromatase; 10 mg/kg p.o.) [%],effectiveness in vivo by oral route (in words) (rat ovarian aromatase; 10 mg/kg),% AROMATASE INHIBITION (rat ovarian aromatase; 30 mg/kg p.o.) [%],conjugation after oral administration (in words) [2],% AROMATASE INHIBITION (rat ovarian aromatase; 100 mg/kg p.o.) [%],effectiveness in vivo by oral route (in words) (rat ovarian aromatase; 100 mg/kg)
"C[C@]12C=CC(=O)C=C1[C@@H](N=[N+]=[N-])C[C@@H]1[C@@H]2CC[C@]2(C)C(=O)CC[C@@H]12 [FCE 24403, 6α-azido androsta-1,4-diene-3,17-dione]","less potent in vitro than, e.g., 4-OH-A",81,very effective,89,,,
"C[C@]12C=CC(=O)C=C1[C@@H](N)C[C@@H]1[C@@H]2CC[C@]2(C)C(=O)CC[C@@H]12 [FCE 24968, 6α-aminoandrosta-1,4-diene-3,17-dione]","less potent in vitro than, e.g., 4-OH-A",53,very effective,71,,,
"C[C@]12C=CC(=O)C=C1CC[C@@H]1[C@@H]2CC[C@]2(C)OC(=O)CC[C@@H]12 [testolactone, D-homo-17a-oxaandrosta-1,4-diene-3,17-dione, reference compound]",,,,2,,,
"C[C@]12CCC(=O)C(O)=C1CC[C@@H]1[C@@H]2CC[C@]2(C)C(=O)CC[C@@H]12 [4-OH-A, 4-hydroxyandrosta-4-ene-3,17-dione, reference compound]",,,,7,extensively conjugated after oral administration,21,ineffective
"C[C@]12C=CC(=O)C=C1CC[C@@H]1[C@@H]2CC[C@]2(C)C(=O)CC[C@@H]12 [androsta-1,4-diene-3,17-dione, reference compound]",,,,37,,,

# Source: patent US4771043A, “Steroidic aromatase inhibitors” (Farmitalia Carlo Erba, S.p.A., priority 1985, dated 1988)
